Source: patent US9932308B2, “Method for producing indoline compound” (UBE INDUSTRIES, LTD., priority 2014, dated 2018)
Entries after “also recorded” stand apart in the source; their conditions may differ.

Assays:
Assay type in all cases: physicochemical
[1] = Photostability test of crystals of compound (1); settings: 4000-lux light at 25° C., relative humidity 60%, 336 hours
Experimental: (§1) The content of the compound (E-3) was expressed as a value calculated as follows: a peak area of a peak observed in a chromatogram and attributed to the compound (E-3) was divided by the sum of peak areas of all peaks observed in the chromatogram.
(§2) An α-crystal, a β-crystal, and a γ-crystal were produced, and each of them was subjected to a photostability test and a crushing stability test under the following conditions.
Each crystal was left under irradiation of 4000-lux light at 25° C. and a relative humidity of 60% for 336 hours.

[2] = Crushing stability test of crystals of compound (1) (crystal form after crushing); settings: crushed in a mortar with a pestle
Experimental: The γ-crystal of the compound (1) in the present specification may contain a solvent or the like in addition to the compound (1), as described in Patent Literature 3. In particular, “α-crystal”, “β-crystal”, and “γ-crystal” are each identified by a method described in Patent Literature 3 and, specifically, the identification is performed through measurement of powder X-ray diffraction.
Analysis equipment: Powder X-ray diffractometer, RINT-TTR III (manufactured by Rigaku Corporation)
as §2
Each crystal was put in a mortal and crushed with a pestle.

[3] = Thermal stability test of crystal of compound (1) (change in content of compound (E-3) on heating); settings: for Content (Y) of compound (E-3) measured after test: after heating of the crystal at 70° C. for 192 hours; for Content (Y) of compound (E-3) measured after test / Content (X) of compound (E-3) measured before test: HPLC peak area ratio, 225 nm; for Content (X) of compound (E-3) measured before test: before heating; for Thermal stability of the crystal (conclusion in words) / [Y−X] (difference between Y and X, increase in content of compound (E-3)): heating at 70° C. for 192 hours
Experimental: In the present specification, a “γ-crystal with good stability” is identified by the thermal stability test described later and is one for which [Y−X] (i.e. a difference between Y and X) is less than 0.040% when the content of the compound (E-3) with respect to the total amount of the crystal is expressed as X % and the content of the compound (E-3) as measured after heating of the crystal at 70° C. for 192 hours is expressed as Y %. The crystal structure of the indoline compound is determined using a powder X-ray diffractometer.
The thermal stability test is a test for evaluating a change in the content of the compound (E-3) in the γ-crystal of the compound (1) caused when the crystal is heated at 70° C. for 192 hours. The pre-test content X (%) of the compound (E-3) with respect to the total amount of the crystal and the post-heating content Y (%) of the compound (E-3) with respect to the total amount of the crystal are measured, and the amount of change is calculated by the formula Y−X and expressed as [Y−X]. The content of the compound (E-3) may be on a mass basis or a volume basis. To measure the content of the compound (E-3) with increased accuracy, the measurement may be performed using high-performance liquid chromatography (HPLC). When the content of the compound (E-3) is measured using HPLC, the content can be measured as a value obtained as follows: a peak area of a peak observed in a chromatogram and attributed to the compound (E-3) is divided by the sum of the peak areas of all the peaks.
Compound analysis was performed in the same manner as in the above examples of step A, except that the measurement wavelength and the mobile phase were changed as follows.
Measurement wavelength: 225 nm
Mobile phase and measurement method: 1.0 g of ammonium formate and water were mixed to a volume of 1000 mL, and then 0.53 mL of formic acid was added to adjust the pH of the solution to 3.7. The measurement was performed as the volume ratio between the solution and acetonitrile was varied from 4:1 to 1:1.
as §1

Row | SMILES | Stability to light (conclusion in words) [1] | Result of crushing stability test (phase transition) [2] | Content (Y) of compound (E-3) measured after test [3] [%] | Content (X) of compound (E-3) measured before test [3] [%] | Thermal stability of the crystal (conclusion in words) [3] | [Y−X] (difference between Y and X, increase in content of compound (E-3)) [3] [%]
1 | C[C@H](Cc1cc2c(c(C(N)=O)c1)N(CCCO)CC2)NCCOc1ccccc1OCC(F)(F)F [γ-crystal, (−)-1-(3-hydroxypropyl)-5-[(2R)-2-({2-[2-(2,2,2-trifluoroethoxy)phenoxy]ethyl}amino)propyl]-2,3-dihydro-1H-indole-7-carboxamide] | good stability to light | phase transition was not observed; also recorded: does not undergo phase transition even when subjected to crushing |  |  |  | 
2 | C[C@H](Cc1cc2c(c(C(N)=O)c1)N(CCCO)CC2)NCCOc1ccccc1OCC(F)(F)F [Example C1, (−)-1-(3-hydroxypropyl)-5-[(2R)-2-({2-[2-(2,2,2-trifluoroethoxy)phenoxy]ethyl}amino)propyl]-2,3-dihydro-1H-indole-7-carboxamide] |  |  | 0.044 | 0.043 | stable | 0.001
3 | C[C@H](Cc1cc2c(c(C(N)=O)c1)N(CCCO)CC2)NCCOc1ccccc1OCC(F)(F)F [Example C3, (−)-1-(3-hydroxypropyl)-5-[(2R)-2-({2-[2-(2,2,2-trifluoroethoxy)phenoxy]ethyl}amino)propyl]-2,3-dihydro-1H-indole-7-carboxamide] |  |  | 0.097 | 0.071 | stable | 0.026
4 | C[C@H](Cc1cc2c(c(C(N)=O)c1)N(CCCO)CC2)NCCOc1ccccc1OCC(F)(F)F [Comparative Example C1, (−)-1-(3-hydroxypropyl)-5-[(2R)-2-({2-[2-(2,2,2-trifluoroethoxy)phenoxy]ethyl}amino)propyl]-2,3-dihydro-1H-indole-7-carboxamide, reference compound] |  |  | 0.133 | 0.091 | unstable | 0.042
5 | C[C@H](Cc1cc2c(c(C(N)=O)c1)N(CCCO)CC2)NCCOc1ccccc1OCC(F)(F)F [Example C4, (−)-1-(3-hydroxypropyl)-5-[(2R)-2-({2-[2-(2,2,2-trifluoroethoxy)phenoxy]ethyl}amino)propyl]-2,3-dihydro-1H-indole-7-carboxamide] |  |  | 0.091 | 0.067 | stable | 0.024
6 | C[C@H](Cc1cc2c(c(C(N)=O)c1)N(CCCO)CC2)NCCOc1ccccc1OCC(F)(F)F [β-crystal, (−)-1-(3-hydroxypropyl)-5-[(2R)-2-({2-[2-(2,2,2-trifluoroethoxy)phenoxy]ethyl}amino)propyl]-2,3-dihydro-1H-indole-7-carboxamide] |  | phase transition was not observed |  |  |  | 
7 | C[C@H](Cc1cc2c(c(C(N)=O)c1)N(CCCO)CC2)NCCOc1ccccc1OCC(F)(F)F [α-crystal, (−)-1-(3-hydroxypropyl)-5-[(2R)-2-({2-[2-(2,2,2-trifluoroethoxy)phenoxy]ethyl}amino)propyl]-2,3-dihydro-1H-indole-7-carboxamide] | the most unstable | transformed into a γ-crystal; also recorded: the most unstable |  |  |  | 
8 | C[C@H](Cc1cc2c(c(C(N)=O)c1)N(CCCO)CC2)NCCOc1ccccc1OCC(F)(F)F [Example C2, (−)-1-(3-hydroxypropyl)-5-[(2R)-2-({2-[2-(2,2,2-trifluoroethoxy)phenoxy]ethyl}amino)propyl]-2,3-dihydro-1H-indole-7-carboxamide] |  |  | 0.088 | 0.076 | stable | 0.012
